In series [1] the test system is CASOB (Sicklepod). Briefly: Postemergence herbicidal evaluation. Format: in vivo, Cassia obtusifolia. The method, boiled down: (§1)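 Scores (0–9) reflect plant stand, vigor, malformation, size, chlorosis and general appearance relative to control, read 4 to 5 weeks after treatment and averaged where tests were repeated. Application: about 0.0156–0.500 kg/ha sprayed at 40 psi onto two-week seedlings.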

For series [2], the system named is CHEAL (Lambsquarters, Common). Briefly: Postemergence herbicidal evaluation. Format: in vivo, Chenopodium album. The method, boiled down: as §1
Series [3] deals with TRZAWR (Wheat, Winter, cv Riband). Description: Postemergence herbicidal evaluation. Format: in vivo, Triticum aestivum. An outline of the steps: as §1
In series [4] the test system is CHEAL (Lambsquarters, Common). Briefly: Preemergence herbicidal evaluation. The conditions noted are these: rated 4-5 weeks after treatment. Type of series: in vivo, Chenopodium album. An outline of the steps: (§2)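 Herbicidal effect scored visually, 0-9, at 4 to 5 weeks against a control; compound applied preemergence by aqueous acetone spray to seeded soil at about 0.0156 to 0.500 kg/ha.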

For series [5], the system named is ORYSAT (Rice, Tebonnet). Briefly: Preemergence herbicidal evaluation. Type of series: in vivo, Oryza sativa, (L.) Tebonnet. The conditions noted are these: rated 4-5 weeks after treatment. An outline of the steps: as §2
For series [6], the system named is ORYSAT (Rice, Tebonnet). Briefly: Rice tolerance to post-transplant applications, flooded paddy conditions (Table III). Format: in vivo, Oryza sativa, (L.) Tebonnet. The note with it: in vivo. The method, boiled down: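 Injury scored 0-9 by eye against untreated control, judging stand, vigor, malformation, size and chlorosis, three to four weeks after treatment. Compound in 50/50 aqueous/acetone, about 0.0313 to 0.500 kg/ha, was applied to paddy water (1.5 to 3 cm depth) three days after transplanting paired ten-day-old Tebonnet rice seedlings.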

The subject of series [7] is MOOVA (Monochoria). Description: Postemergence weed control under flooded paddy conditions. Type of series: in vivo, Monochoria vaginalis. The conditions noted are these: postemergence weeds, 3-4 weeks after treatment. The method, boiled down: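 Flood-water application, about 0.0313–0.500 kg/ha a.i. in aqueous/acetone 50/50 v/v; water depth 1.5–3 cm throughout. Weeds 3–5 cm, rice 1.5–2.5 leaf. Greenhouse; 0–9 visual rating vs control at 3–4 wk.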

Series [8] concerns ORYSAT (Rice, Tebonnet). Description: Rice tolerance to post-transplant applications, flooded paddy conditions (Table IV). Type of series: in vivo, Oryza sativa, (L.) Tebonnet. The conditions noted are these: in vivo. The method, boiled down:
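Herbicidal effect is judged by eye on a 0–9 scale versus control, 3–4 weeks after dosing. Dosing is into flood water kept 1.5–3 cm over the soil, at about 0.0313–0.500 kg/ha in aqueous/acetone 50/50 v/v, on 3–5 cm weeds and 1.5–2.5-leaf rice seedlings.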

Take `Cn1c(C(F)(F)F)cc(=O)n(-c2cc(/N=C3/SCC(=O)N3CC(=O)O)c(Cl)cc2F)c1=O` [Compound 52, 2-{{2-Chloro-5-[3,6-dihydro-3-methyl-2,6-dioxo-4-(trifluoromethyl)-1(2H)-pyrimidinyl]-4-fluoro-phenyl}imino}-4-oxo-3-thiazolidineacetic acid]: the “Postemergence herbicidal rating CASOB” value is on record as 1.0 in series [1] (Rate 0.0158 kg/ha), 1.0 in series [1] (Rate 0.0315 kg/ha) and 2.0 in series [1] (Rate 0.0630 kg/ha). For the same molecule, the “Postemergence herbicidal rating CHEAL” value was 4.0 in series [2] (Rate 0.0158 kg/ha), 4.0 in series [2] (Rate 0.0315 kg/ha) and 6.0 in series [2] (Rate 0.0630 kg/ha). The “Postemergence herbicidal rating TRZAWR” value in series [3] (Rate 0.0158 kg/ha) amounted to 2.5; in series [3] (Rate 0.0315 kg/ha), 3.0; in series [3] (Rate 0.0630 kg/ha) it was 4.5. Moreover, the “Preemergence herbicidal rating CHEAL” value in series [4] (rate 0.0313 kg/ha) came out at 0.0; in series [4] (rate 0.0625 kg/ha), 6.0; in series [4] (rate 0.1250 kg/ha) it was 9.0; in series [4] (rate 0.2500 kg/ha), 9.0. Besides, the “Preemergence herbicidal rating ORYSAT” value worked out at 0.0 in series [5] (rate 0.0313 kg/ha), 0.0 in series [5] (rate 0.0625 kg/ha), 0.0 in series [5] (rate 0.1250 kg/ha) and 4.0 in series [5] (rate 0.2500 kg/ha). Moreover, the “Herbicidal rating ORYSAT (rice tolerance)” value in series [6] and in series [8] was 0.0 each time. Also, the “Herbicidal rating MOOVA” value in series [7] (rate 0.2500 kg/ha) is listed as 4.0.

For `Cn1c(C(F)(F)F)cc(=O)n(-c2cc(N=C3SCC(=O)N3CCC(=O)O)c(Cl)cc2F)c1=O` [Compound 30, 2-{{2-Chloro-5-[3,6-dihydro-3-methyl-2,6-dioxo-4-(trifluoromethyl)-1(2H)-pyrimidinyl]-4-fluorophenyl}imino}-4-oxo-3-thiazolidinepropionic acid], the “Postemergence herbicidal rating CASOB” value in series [1] (Rate 0.0158 kg/ha), in series [1] (Rate 0.0315 kg/ha) and in series [1] (Rate 0.0630 kg/ha) was 0.0 in each case. Moreover, the “Postemergence herbicidal rating CHEAL” value in series [2] (Rate 0.0158 kg/ha) turned out to be 0.0; in series [2] (Rate 0.0315 kg/ha), 0.0; in series [2] (Rate 0.0630 kg/ha), 3.0. Also, the results for the “Postemergence herbicidal rating TRZAWR” value in series [3] (Rate 0.0158 kg/ha), in series [3] (Rate 0.0315 kg/ha) and in series [3] (Rate 0.0630 kg/ha) were 4.0, 4.5 and 5.5, respectively. Moreover, the “Preemergence herbicidal rating CHEAL” value in series [4] (rate 0.0313 kg/ha) worked out at 0.0; in series [4] (rate 0.0625 kg/ha), 0.0; in series [4] (rate 0.1250 kg/ha) it was 9.0; in series [4] (rate 0.2500 kg/ha), 9.0. Also, the “Preemergence herbicidal rating ORYSAT” value in series [5] (rate 0.0313 kg/ha) worked out at 1.0; in series [5] (rate 0.0625 kg/ha), 1.0; in series [5] (rate 0.1250 kg/ha), 1.0; in series [5] (rate 0.2500 kg/ha) it was 4.0. For the same molecule, the “Herbicidal rating ORYSAT (rice tolerance)” value in series [6] and in series [8] was 0.0 each time. The figures for the “Herbicidal rating MOOVA” value in series [7] (rate 0.1250 kg/ha) and in series [7] (rate 0.2500 kg/ha) were 1.5 and 4.5, respectively.

The values above are taken from patent publication US20020137929A1, “1 - (3-heterocyclylphenyl) isothiourea, -isourea, -guanidine and -amidine herbicidal agents” (Intellectual Property Department, BASF Aktiengesellschaft, priority 1998, published 2002).
